What was measured:
beta-1-receptors = biological target: T1, beta-1-receptors (Rattus norvegicus, UniProt P18090); experiment: in vivo cardiac response (dP/dt, LVP, HR) in anesthetized rat during infusion; settings: i.v. infusion at varying rates
T1 construct: from tissue; host or cells: heart of anesthetized rat, in vivo (left ventricular pressure, dP/dt, heart rate)
Method: Following sedation, the neck of the rat was incised and a tracheotomy was performed, inserting a 14-gauge angiocatheter sheath into the trachea of the rat and securing it with a silk tie. The angiocatheter was connected through a small tube to a small animal respirator supplied with 1.0 liters of oxygen per minute and set to 95 breaths per minute.
The right carotid artery was next tied off, and after making a small incision, a Micro-Tip Millar pressure catheter was introduced down through the carotid artery, placing the end of the catheter into the left ventricular cavity of the rat's heart. Position of the catheter tip was determined by the waveform of the pressure reading-placement in the left ventricle was presumed when a diastolic pressure of zero mmHg and a reasonable systolic pressure (70 to 150 mmHg) was observed. […]
At this point for each rat, a baseline recording was obtained of the left ventricular pressure tracing. Segments of three to five seconds were recorded, and it was from these recorded tracings that the included figures of maximum left ventricular pressure (reported as LVP), maximum time-derivative of left ventricular pressure (dP/dT), and heart rate (HR) were later determined, by analysis with Sonometrics CardioSOFT data analysis software. […]
Again, at each rate, LVP was recorded for later analysis. […]

mice = settings: i.v. in mice; cited from earlier work
β2 receptor = β2 receptor (Cavia porcellus, UniProt Q8K4Z4); settings: calculated from a fit of the isoproterenol control curve
Excerpt: It is noted that, in the relevant art, there exists a method for calculating drug efficacy by utilization of easily identifiable biophysical parameters. […] Specifically, the experimental data and the calculated values were compared.

T1 sequence (P18090 whole entry, the tested form may be a part): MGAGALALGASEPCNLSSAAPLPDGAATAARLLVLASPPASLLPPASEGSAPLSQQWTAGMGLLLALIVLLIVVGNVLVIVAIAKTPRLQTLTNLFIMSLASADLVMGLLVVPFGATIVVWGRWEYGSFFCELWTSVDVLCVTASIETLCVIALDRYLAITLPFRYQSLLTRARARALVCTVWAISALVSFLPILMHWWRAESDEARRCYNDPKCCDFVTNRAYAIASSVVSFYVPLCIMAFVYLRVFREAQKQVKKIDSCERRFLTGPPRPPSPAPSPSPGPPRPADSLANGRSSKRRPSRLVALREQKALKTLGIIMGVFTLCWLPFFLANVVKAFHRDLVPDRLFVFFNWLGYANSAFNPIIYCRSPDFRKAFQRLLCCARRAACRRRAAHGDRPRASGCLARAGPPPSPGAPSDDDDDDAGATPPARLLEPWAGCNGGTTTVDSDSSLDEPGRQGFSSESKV
Chain of β2 receptor (Q8K4Z4 whole entry): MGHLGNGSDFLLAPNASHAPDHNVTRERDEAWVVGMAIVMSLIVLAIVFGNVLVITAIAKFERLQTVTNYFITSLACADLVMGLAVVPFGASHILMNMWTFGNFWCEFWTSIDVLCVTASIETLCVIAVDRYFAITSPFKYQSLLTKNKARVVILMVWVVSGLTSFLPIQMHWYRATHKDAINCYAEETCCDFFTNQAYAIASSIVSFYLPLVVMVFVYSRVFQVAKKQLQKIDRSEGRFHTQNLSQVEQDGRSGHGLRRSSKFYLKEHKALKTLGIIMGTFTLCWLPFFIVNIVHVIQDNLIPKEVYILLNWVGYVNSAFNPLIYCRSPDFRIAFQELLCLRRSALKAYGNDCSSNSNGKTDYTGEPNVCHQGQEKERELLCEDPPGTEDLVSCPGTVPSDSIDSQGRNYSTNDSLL

Structure (SMILES) | dP/dT response with increasing dosage (beta-1-receptors) | dP/dT response with increasing dosage (beta-1-receptors; listed as Dob) | LD50 (mice) [mg/kg] | φ=(KDLKDH/2)^−½, value of the maximum of the control curve (β2 receptor) [µM]
CC(CCc1ccc(O)cc1)NCCc1ccc(O)c(O)c1 (stereo not shown) [dobutamine] | at higher dosages the dP/dT again began to decrease (desensitization) | showed a decline in response | 73 | –
CC(C)NCC(O)c1ccc(O)c(O)c1 (stereo not shown) [isoproterenol] | – | – | – | 7.48
